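Tested at 5 concentrations; 48 h exposure; 96-well plates; endpoints linearly interpolated, else capped at highest concentration. TGI: concentration producing complete growth inhibition.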
What was measured:
Experiment in all cases: inhibition of tumour cell growth, NCI panel, 48 h
[1] = test system: SNB-19 CNS
[2] = test system: NCI-H522 lung
[3] = test system: TK-10 renal
[4] = test system: OVCAR-8 ovarian
[5] = test system: SF-539 CNS
[6] = test system: MDA-N
[7] = test system: UACC-257 melanoma
[8] = test system: OVCAR-5 ovarian
[9] = test system: SF-268 CNS
[10] = test system: UO-31 renal
[11] = test system: RXF 393 renal
[12] = test system: HT29 colon
[13] = test system: BT-549 breast
[14] = test system: NCI-H23 lung
[15] = test system: KM20L2 colon
[16] = test system: SF-295 CNS
[17] = test system: SK-MEL-28 melanoma
[18] = test system: HCT-116 colon
[19] = test system: 786-0 renal
[20] = test system: LOX IMVI melanoma
[21] = test system: LXFL 529 NSCLC
[22] = test system: SR leukemia
[23] = test system: MALME-3M melanoma
[24] = test system: NCI/ADR-RES ovarian
[25] = test system: OVCAR-4 ovarian
[26] = test system: DLD-1 colon
[27] = test system: NCI-H460 lung
[28] = test system: SNB-78 CNS
[29] = test system: CCRF-CEM leukemia
[30] = test system: HOP-62 NSCLC
[31] = test system: T-47D breast
[32] = test system: HCT-15 colon
[33] = test system: U251 CNS
[34] = test system: A549 NSCLC
[35] = test system: UACC-62 melanoma
[36] = test system: MDA-MB-231 breast
[37] = test system: HOP-18 NSCLC
[38] = test system: A498 renal
[39] = test system: EKVX NSCLC
[40] = test system: HCC-2998 colon
[41] = test system: PC-3 prostate
[42] = test system: CAKI-1 renal
[43] = test system: HOP-92 NSCLC
[44] = test system: DMS 114 small cell lung
[45] = test system: SK-OV-3 ovarian
[46] = test system: HS 578T breast
[47] = test system: SN12C renal
[48] = test system: SK-MEL-5 melanoma
[49] = test system: MCF7 breast
[50] = test system: OVCAR-3 ovarian
[51] = test system: SW-620 colon
[52] = test system: ACHN renal
[53] = test system: K-562 leukemia
[54] = test system: KM12 colon
[55] = test system: HL-60(TB) leukemia
[56] = test system: COLO 205 colon
[57] = test system: IGROV1 ovarian
[58] = test system: NCI-H226 lung
[59] = test system: RPMI-8226 leukemia
[60] = test system: M14 melanoma
[61] = test system: SNB-75 CNS
[62] = test system: DU-145 prostate
[63] = test system: MOLT-4 leukemia
[64] = test system: MDA-MB-435
[65] = test system: SK-MEL-2 melanoma
[66] = test system: DMS 273 small cell lung
[67] = test system: M19-MEL melanoma

CN(C)CCNc1ccc2nnn3c4ccc(O)cc4c(=O)c1c23
TGI [1]: 31.8 µM
TGI [2]: 18.8 µM
TGI [3]: 31.9 µM
TGI [4]: 16.8 µM
TGI [5]: 15.6 µM
TGI [6]: 15 µM
TGI [7]: 22.2 µM
TGI [8]: 19.9 µM
TGI [9]: 20.7 µM
TGI [10]: 13.8 µM
TGI [11]: 14.3 µM
TGI [12]: 16.1 µM
TGI [13]: 28.5 µM
TGI [14]: 17.3 µM
TGI [15]: 22.7 µM
TGI [16]: 15.3 µM
TGI [17]: 23.4 µM
TGI [18]: 13.5 µM
TGI [19]: 15.4 µM
TGI [20]: 6.41 µM
TGI [21]: 19 µM
TGI [22]: 16.4 µM
TGI [23]: 19.5 µM
TGI [24]: 12.6 µM
TGI [25]: 9.63 µM
TGI [26]: 22.7 µM
TGI [27]: 11.4 µM
TGI [28]: 31.7 µM
TGI [29]: 32.9 µM
TGI [30]: 17.2 µM
TGI [31]: 27.1 µM
TGI [32]: 13.4 µM
TGI [33]: 16.2 µM
TGI [34]: 13 µM
TGI [35]: 19.7 µM
TGI [36]: 4.81 µM
TGI [37]: 50.5 µM
TGI [38]: 12.1 µM
TGI [39]: 18.5 µM
TGI [40]: 19.6 µM
TGI [41]: 12.1 µM
TGI [42]: 20 µM
TGI [43]: 26.5 µM
TGI [44]: 20.9 µM
TGI [45]: 29.7 µM
TGI [46]: 11.5 µM
TGI [47]: 23.9 µM
TGI [48]: 12.2 µM
TGI [49]: 16 µM
TGI [50]: 27.8 µM
TGI [51]: 15.6 µM
TGI [52]: 26.1 µM
TGI [53]: > 37.7 µM
TGI [54]: 13.5 µM
TGI [55]: 23.6 µM
TGI [56]: 18.2 µM
TGI [57]: 17.2 µM
TGI [58]: 23.6 µM
TGI [59]: 24.6 µM
TGI [60]: 21.2 µM
TGI [61]: 32.1 µM
TGI [62]: 18.6 µM
TGI [63]: 9.56 µM
TGI [64]: 17.1 µM
TGI [65]: 22.6 µM

O=C(Nc1ccccc1SC(/C=C/NNC1=NC(c2ccccc2)C(c2ccccc2)=NN1)c1ccccc1)c1ccc(Cl)cc1Cl (configuration not stated)
TGI [1]: > 100 µM
TGI [2]: > 100 µM
TGI [3]: > 100 µM
TGI [4]: > 100 µM
TGI [5]: 60.2 µM
TGI [7]: > 100 µM
TGI [8]: > 100 µM
TGI [66]: > 100 µM
TGI [9]: > 100 µM
TGI [10]: 94.6 µM
TGI [11]: > 100 µM
TGI [12]: > 100 µM
TGI [14]: 55.6 µM
TGI [15]: > 100 µM
TGI [16]: > 100 µM
TGI [17]: > 100 µM
TGI [19]: > 100 µM
TGI [20]: > 100 µM
TGI [23]: > 100 µM
TGI [25]: 94.8 µM
TGI [26]: > 100 µM
TGI [27]: > 100 µM
TGI [28]: > 100 µM
TGI [29]: > 100 µM
TGI [30]: 73.5 µM
TGI [32]: > 100 µM
TGI [33]: 64.6 µM
TGI [34]: > 100 µM
TGI [35]: > 100 µM
TGI [38]: > 100 µM
TGI [39]: > 100 µM
TGI [40]: > 100 µM
TGI [44]: > 100 µM
TGI [45]: > 100 µM
TGI [47]: > 100 µM
TGI [48]: > 100 µM
TGI [50]: > 100 µM
TGI [51]: > 100 µM
TGI [52]: > 100 µM
TGI [53]: > 100 µM
TGI [54]: > 100 µM
TGI [55]: > 100 µM
TGI [56]: > 100 µM
TGI [57]: > 100 µM
TGI [58]: 99.6 µM
TGI [67]: > 100 µM
TGI [59]: > 100 µM
TGI [61]: > 100 µM
TGI [65]: 45.6 µM

CN(C)CCNC(=O)C1COc2cc(-c3cc(=O)c4ccccc4o3)ccc2O1 (configuration not stated)
TGI [1]: 57.8 µM
TGI [2]: 31 µM
TGI [3]: 75.9 µM
TGI [4]: 70.1 µM
TGI [5]: 32.9 µM
TGI [7]: 34.7 µM
TGI [8]: > 100 µM
TGI [66]: 36.3 µM
TGI [9]: 50.9 µM
TGI [10]: > 100 µM
TGI [11]: 38.8 µM
TGI [12]: 34.6 µM
TGI [14]: > 100 µM
TGI [15]: 56.5 µM
TGI [16]: 93.6 µM
TGI [17]: 36 µM
TGI [18]: 29.6 µM
TGI [19]: 36.3 µM
TGI [20]: 38.3 µM
TGI [22]: 39.5 µM
TGI [23]: 36.2 µM
TGI [25]: 33.2 µM
TGI [26]: > 100 µM
TGI [27]: > 100 µM
TGI [28]: 57.8 µM
TGI [29]: > 100 µM
TGI [30]: > 100 µM
TGI [32]: > 100 µM
TGI [33]: 40.3 µM
TGI [34]: 35.5 µM
TGI [35]: 34.9 µM
TGI [37]: 56 µM
TGI [38]: 33.7 µM
TGI [39]: > 100 µM
TGI [40]: > 100 µM
TGI [42]: 38.3 µM
TGI [43]: > 100 µM
TGI [45]: 53.8 µM
TGI [47]: 78.8 µM
TGI [48]: 28.8 µM
TGI [50]: 43.7 µM
TGI [51]: 44.5 µM
TGI [52]: 33.1 µM
TGI [53]: > 100 µM
TGI [55]: 58.9 µM
TGI [56]: 31.7 µM
TGI [57]: 48.3 µM
TGI [58]: 49 µM
TGI [67]: > 100 µM
TGI [59]: 85.1 µM
TGI [60]: 32 µM
TGI [61]: 43.1 µM
TGI [63]: 40.7 µM

Reference: PubChem BioAssay (NCI)
